The numbers were not newly measured in patent US20260158012A1 (Beijing Creatron Institute Of Pharmaceutical Research Co. …, priority 2022, published 2026), which cites them from elsewhere.

Where two headings read alike, the source gives them in different places.

For data set [1] the following is noted: for Solubility (in words): aqueous media.
The conditions of data set [2]: dosage increased from 400 mg each time to 600 mg each time.
Assay in data set [3]: not given
The source holds these as a separate data set.

Data set [4] deals with advanced hepatocellular carcinoma.
For data set [5] the following is noted: 7 consecutive days.
[6] abbreviates: trough concentration <1.40 μg/mL.
The mark [7] stands for this setting: trough concentration ≥3.45 μg/mL.

On to `[2H]C([2H])([2H])NC(=O)c1cc(Oc2ccc(NC(=O)Nc3ccc(Cl)c(C(F)(F)F)c3)cc2)ccn1` [Donafenib, 4-[4-[[4-chloro-3-(trifluoromethyl)phenyl]carbamoylamino]phenoxy]-N-(trideuteriomethyl)pyridine-2-carboxamide], for which, in data set [1], the Solubility is below 10 µg/mL and the “Solubility (in words)” value was “Practically insoluble in aqueous”.

Turning to `CNC(=O)c1cc(Oc2ccc(NC(=O)Nc3ccc(Cl)c(C(F)(F)F)c3)cc2)ccn1` [Sorafenib, 4-[4-[[4-chloro-3-(trifluoromethyl)phenyl]carbamoylamino]phenoxy]-N-methylpyridine-2-carboxamide], in data set [2], the “increase in drug exposure” value was 13%. In addition, in data set [1], the Solubility is below 10 µg/mL, the “oil-water partition coefficient Log P” value is reported as “about 5.6” and the “Solubility (in words)” value is recorded as “Practically insoluble in aqueous”. Also, where the note is “pH 1.0”, the “concentration of sorafenib molecules in the solution” value is 3400 ng/mL. In addition, the “concentration of sorafenib molecules in the solution” value (pH 4.5) is 130 ng/mL. The “steady state concentration in the blood (plasma)” value in data set [3] (after 2 weeks of treatment, renal cell carcinoma patients) is given as 881-12,526 ng/mL. Besides, the “blood drug concentration of patients who experienced serious adverse reactions” value in data set [3] (human, in vivo) is “exceeded 10,000 ng/ml”. In data set [3] (renal cell carcinoma patients), the incidence of fatigue is reported as 55.32% and the “incidence of hand-foot syndrome” value is listed as 68.99%. In data set [4] (1.40 μg/mL≤Ctrough<3.45 μg/mL), the “overall survival (OS)” value is on record as 17.8 months and the “time to treatment failure (TTF)” value is recorded as 13.1 months. Besides, in data set [4] (setting [6]), the “overall survival (OS)” value was 5.3 months, the “progression-free survival (PFS)” value is given as 4.7 months and the “time to treatment failure (TTF)” value was 4.7 months. Moreover, the “incidence of serious adverse reactions above grade 3” value in data set [4] (trough concentration below 3.45 μg/ml) is 26.7%. Moreover, the “incidence of serious adverse reactions above grade 3” value in data set [4] (trough concentration exceeded 3.45 μg/ml) is on record as 72.7%. Moreover, in data set [4] (setting [7]), the “overall survival (OS)” value is on record as 9.5 months, the “progression-free survival (PFS)” value is listed as 8.9 months and the “time to treatment failure (TTF)” value was 2.4 months. Also, in data set [5] (200 mg (Bid) oral), the “coefficient of variation of AUC0-12 h at steady state” value is recorded as 16.9% and the “coefficient of variation of Cmax at steady state” value was 8.6%. In addition, in data set [5] (400 mg (Bid) oral), the “coefficient of variation of AUC0-12 h at steady state” value was 90.5% and the “coefficient of variation of Cmax at steady state” value was 106.7%.
